Data on ten molecules can be found in ChEMBL document CHEMBL1201862, “PubChem BioAssay data set” (2004).

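Values below derive from 48-hour exposures of cells grown in 96-well plates, with endpoints linearly interpolated between the two concentrations bracketing the appropriate inhibition level. The concentration for 50% growth inhibition is given as GI50.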 The source made the active and inactive calls. Cut-off read from the data, not from the text of the source: active = GI50 up to about 1.1 µM and inactive = higher.

What all share (test): growth of human tumour cells (NCI), 48 h
Experiment [1] relates to RXF 393.
Experiment [2] relates to HT-29.
Experiment [3] concerns DMS-273.
For experiment [4], the system named is SK-MEL-5.
For experiment [5], the system named is M14.
Experiment [6] concerns HL-60.
Experiment [7] relates to SF-295.
Experiment [8] deals with A498.
Experiment [9] has as its system HCC 2998.
Experiment [10] relates to SF-539.
Experiment [11] relates to K562.
Experiment [12] has as its system NCI-H23.
Experiment [13] relates to SW-620.
Experiment [14] has as its system HCT-116.
Experiment [15] concerns CAKI-1.

`O=C1NC(=O)C2C1c1[nH]c3ccccc3c1C1CCCC12` (stereo not drawn): the GI50 in experiment [1] was 2.7 µM (inactive); in experiment [2] it was 2.07 µM (inactive); in [3] it was 0.481 µM (active); in [4], 0.893 µM (active); in experiment [5], 1.73 µM (inactive); in [6] it was 0.573 µM (active). For the same molecule, the GI50 is 1.29 µM (inactive) in experiment [7]; 4.76 µM (inactive) in experiment [8]; 6.55 µM (inactive) in experiment [9]; 3.03 µM (inactive) in [10]; 0.48 µM (active) in experiment [11]; 3.79 µM (inactive) in [12]. For the same molecule, in experiment [13], the GI50 is 0.951 µM (active).
Turning to `COc1cc(Cl)cc(N(O)C(C)=O)c1OCc1ccccc1`, the GI50 in experiment [1] was > 100 µM (inactive); in experiment [2], 64.6 µM (inactive); in experiment [3], 49.9 µM (inactive); in [4] it was > 100 µM (inactive); in [14], 75.2 µM (inactive); in [5] it was > 100 µM (inactive). Further, the GI50 in experiment [6] was 40.7 µM (inactive); in [15] it was > 100 µM (inactive); in experiment [7], 66.2 µM (inactive); in [8], > 100 µM (inactive); in [9], > 100 µM (inactive); in experiment [10] it was 83.4 µM (inactive). The GI50 in experiment [11] is 75.9 µM (inactive); in experiment [12] it was > 100 µM (inactive); in experiment [13] it was > 100 µM (inactive).
With `COc1ccc(NC(=O)CC/C(CC(=O)C(C)(C)C)=N\NC(=O)C(=O)NN)cc1`, the GI50 in [1], in experiment [2], in experiment [3], in [4], in experiment [14] and in experiment [5] was > 100 µM (inactive) in each case. The GI50 in experiment [6], in experiment [15], in experiment [7], in [8], in [9] and in [10] was > 100 µM (inactive) throughout. Moreover, the GI50 in experiment [11], in [12] and in [13] was > 100 µM (inactive) throughout.
For `C[N+](C)(C)CC(=O)N/N=C(\C(=O)Nc1ccc(Cl)cc1)C1C(=O)N(c2ccccc2)N=C1N` (stereo not drawn), the GI50 in experiment [1], in [2], in [3], in [4], in experiment [14] and in experiment [5] was > 100 µM (inactive) in each case. Moreover, the GI50 in experiment [6], in experiment [15], in experiment [8], in [9], in experiment [10] and in [11] was > 100 µM (inactive) each time. The GI50 in experiment [12] and in [13] was > 100 µM (inactive) each time.
For the molecule `Cc1nc(N)sc1C(=O)/C=C/c1ccc([N+](=O)[O-])cc1`, the GI50 in experiment [1], in [2], in experiment [3], in experiment [4], in experiment [6] and in [15] was > 100 µM (inactive) throughout. In addition, the GI50 in [7], in experiment [8], in experiment [9], in experiment [10], in experiment [11] and in experiment [12] was > 100 µM (inactive) throughout. Besides, the GI50 in experiment [13] was > 100 µM (inactive).
For the molecule `CN(C)/C=C/C(=CC=[N+](C)C)/C=C/N(C)C.[O-][Cl+3]([O-])([O-])[O-]`, the GI50 in [1], in [2], in experiment [3], in experiment [4], in [14] and in experiment [5] was > 100 µM (inactive) in each case. For the same molecule, the GI50 is > 100 µM (inactive) in experiment [6]; 70.3 µM (inactive) in [15]; > 100 µM (inactive) in [7]; 31.3 µM (inactive) in experiment [8]; > 100 µM (inactive) in experiment [9]; > 100 µM (inactive) in experiment [10]. For the same molecule, the GI50 in [11], in experiment [12] and in [13] was > 100 µM (inactive) each time.
As for `C=C1CC(CC(=O)C(C)CC2CC(=C)C(=O)O2)OC1=O` (stereo not drawn), the GI50 in [1] was 18.7 µM (inactive); in experiment [2] it was 26.2 µM (inactive); in experiment [3], 23.2 µM (inactive); in [4] it was 33.3 µM (inactive); in [14] it was 12.1 µM (inactive); in experiment [5] it was 15.8 µM (inactive). Also, the GI50 in experiment [6] is 14 µM (inactive); in [7], > 100 µM (inactive); in experiment [8], 46.5 µM (inactive); in [9], 37.1 µM (inactive); in experiment [10], 18.8 µM (inactive); in [11], 22.7 µM (inactive). The values for the GI50 in experiment [12] and in experiment [13] were 18.8 µM (inactive) and 11 µM (inactive), respectively.
Consider `CCOC(=O)c1c2ccc(/C=C/C(=O)OC)ccc-2c(C(=O)OCC)c1N`, for which the GI50 in [1], in experiment [2], in experiment [3], in [4], in experiment [5] and in experiment [6] was > 100 µM (inactive) throughout. In addition, the GI50 in experiment [15] is > 100 µM (inactive); in [7], > 100 µM (inactive); in experiment [8], 6.52 µM (inactive); in experiment [9], > 100 µM (inactive); in experiment [10], > 100 µM (inactive); in experiment [11] it was > 100 µM (inactive). The GI50 in [12] and in experiment [13] was > 100 µM (inactive) throughout.
For the molecule `O=C(/C=C/c1ccc(Cl)cc1)c1ccc(Cl)c(Cl)c1`, the GI50 in experiment [1] was 15.5 µM (inactive); in [2] it was 48 µM (inactive); in [3], 40.9 µM (inactive); in experiment [4], 18.1 µM (inactive); in [14] it was 4.99 µM (inactive); in [5] it was 28 µM (inactive). For the same molecule, the GI50 in experiment [6] was 3.44 µM (inactive); in experiment [15] it was 18.1 µM (inactive); in experiment [7], 35.2 µM (inactive); in experiment [8], 34.4 µM (inactive); in [9] it was 30.3 µM (inactive); in experiment [10], 20 µM (inactive). Moreover, the figures for the GI50 in [11], in experiment [12] and in [13] were 21.7 µM (inactive), 9.4 µM (inactive) and 5.41 µM (inactive), respectively.
Regarding `CCCCCCCC(=O)OCC1OC(n2cc(F)c(=O)[nH]c2=O)C(NC(=O)OCc2ccccc2)C(O)C1O` (stereo not drawn), the GI50 in experiment [1] was > 100 µM (inactive); in experiment [2], > 100 µM (inactive); in experiment [3], 40 µM (inactive); in [4], 1.55 µM (inactive); in experiment [14], > 100 µM (inactive); in experiment [5], > 100 µM (inactive). Also, the GI50 in [6] is 40.3 µM (inactive); in experiment [15], > 100 µM (inactive); in [7], > 100 µM (inactive); in [8], > 100 µM (inactive); in experiment [9], 19.5 µM (inactive); in experiment [10], 83.4 µM (inactive). Besides, the results for the GI50 in [11], in [12] and in experiment [13] were 28.2 µM (inactive), > 100 µM (inactive) and > 100 µM (inactive), respectively.
